Laboratory results published in patent US3966715A, “Herbicidal agents” (Bayer Aktiengesellschaft, priority 1966, dated 1976).

Legend:
Format in all cases: in vivo
Details in all cases: three weeks
Oats [1] = test: Pre-emergence test, oats
Protocol: (§1) Solvent: 5 parts by weight acetone
(§2) 1 part by weight benzyloxypolyglycol ether
(§3) To produce a suitable preparation of the particular active compound, 1 part by weight of such active compound is mixed with the stated amount of solvent, the stated amount of emulsifier is then added and the resulting concentrate is thereafter diluted with water to the desired final concentration.
(§4) Seeds of the test plants are sown in normal soil and, after 24 hours, watered with the preparation of the given active compound. It is expedient to keep constant the amount of water per unit area. The concentration of the particular active compound in the preparation is of no importance, only the amount of active compound applied per unit area being decisive. After three weeks, the degree of damage to the test plants is determined and characterized by the values 0-5, which have the following meaning:
(§5) The procedure of Example 1 is repeated, and the particular active compounds tested, the amounts applied, and the results obtained can be seen from the following Table 1D: […]

Wheat [2] = test: Post-emergence test, wheat
Protocol: as §1, §2, §3
(§6) Test plants which have a height of about 5--15 cm. are sprayed with the preparation of the given active compound until just dew moist. After three weeks, the degree of damage to the plants is determined and characterized by the values 0-5, which have the following meaning:
(§7) The procedure of Example 2 is repeated, and the particular active compounds tested, and amounts applied, and the results obtained can be seen from the following Table 2E: […]

Wheat [3] = test: Pre-emergence test, wheat
Protocol: as §1, §2, §3, §4, §5

Oats [4] = test: Post-emergence test, oats
Protocol: as §1, §2, §3, §6, §7

Echinochloa = test: Post-emergence test, Echinochloa
Protocol: as §1, §2, §3, §6, §7

Stellaria = test: Post-emergence test, Stellaria
Protocol: as §1, §2, §3, §6, §7

Cotton = test: Pre-emergence test, cotton
Protocol: as §1, §2, §3, §4, §5

## CCNc1nnc(-c2ccccc2)c(=O)n1N [Compound 7, 3-ethylamino-4-amino-6-phenyl-1,2,4-triazine-5-one]
Oats [1]; 2.5 kg/hectare
  degree of damage, Oats: 4-5

## CSc1nnc(CC(C)C)c(=O)n1N [Compound 11, 3-methylthio-4-amino-6-isobutyl-1,2,4-triazine-5-one]
Wheat [2]; 2.4 Kg/hectare
  degree of damage, Wheat: 4-5

## CCc1nnc(SC)n(N)c1=O [Compound 22, 3-methylthio-4-amino-6-ethyl-1,2,4-triazine-5-one]
Wheat [3]; 5 kg/hectare
  degree of damage, Wheat: 4-5
Oats [4]; 1.2 Kg/hectare
  degree of damage, Oats: 4-5
Oats [4]; 2.4 Kg/hectare
  degree of damage, Oats: 4-5

## CSc1nnc(CCC(C)C)c(=O)n1N [Compound 23, 3-methylthio-4-amino-6-isopentyl-1,2,4-triazine-5-one]
Wheat [2]; 2.4 Kg/hectare
  degree of damage, Wheat: 4-5

## CCSc1nnc(C(C)C)c(=O)n1N [Compound 148, 3-ethylthio-4-amino-6-isopropyl-1,2,4-triazine-5-one]
Wheat [3]; 1.25 kg/hectare
  degree of damage, Wheat: 3-4
Echinochloa; 0.6 Kg/hectare
  degree of damage, Echinochloa: 4-5
Echinochloa; 1.2 Kg/hectare
  degree of damage, Echinochloa: 4-5
Oats [1]; 1.25 kg/hectare
  degree of damage, Oats: 4-5
Oats [1]; 2.5 kg/hectare
  degree of damage, Oats: 4-5
Oats [1]; 5 kg/hectare
  degree of damage, Oats: 4-5
Stellaria; 2.4 Kg/hectare
  degree of damage, Stellaria: 4-5
Wheat [2]; 2.4 Kg/hectare
  degree of damage, Wheat: 4-5
Cotton; 2.5 kg/hectare
  degree of damage, Cotton: 4-5
Cotton; 5 kg/hectare
  degree of damage, Cotton: 4-5

## CCCc1nnc(SC)n(N)c1=O [Compound 153, 3-methylthio-4-amino-6-n-propyl-1,2,4-triazine-5-one]
Oats [4]; 2.4 Kg/hectare
  degree of damage, Oats: 4-5
Oats [1]; 1.25 kg/hectare
  degree of damage, Oats: 4-5
Oats [1]; 2.5 kg/hectare
  degree of damage, Oats: 4-5
Cotton; 1.25 kg/hectare
  degree of damage, Cotton: 4-5

## C#CCSc1nnc(C(C)C)c(=O)n1N [Compound 158, 3-propargylthio-4-amino-6-isopropyl-1,2,4-triazine-5-one]
Stellaria; 1.2 Kg/hectare
  degree of damage, Stellaria: 4-5

## CNc1nnc(C(C)(C)C)c(=O)n1N [Compound 175, 3-methylamino-4-amino-6-tert.-butyl-1,2,4-triazine-5-one]
Oats [4]; 0.6 Kg/hectare
  degree of damage, Oats: 4-5
Oats [4]; 1.2 Kg/hectare
  degree of damage, Oats: 4-5
Echinochloa; 0.6 Kg/hectare
  degree of damage, Echinochloa: 4-5
Echinochloa; 1.2 Kg/hectare
  degree of damage, Echinochloa: 4-5
Wheat [2]; 2.4 Kg/hectare
  degree of damage, Wheat: 4-5

## CCNc1nnc(C(C)(C)C)c(=O)n1N [Compound 176, 3-ethylamino-4-amino-6-tert.-butyl-1,2,4-triazine-5-one]
Echinochloa; 2.4 Kg/hectare
  degree of damage, Echinochloa: 4-5
Stellaria; 0.6 Kg/hectare
  degree of damage, Stellaria: 4-5

## CCCNc1nnc(C(C)C)c(=O)n1N [Compound 178, 3-n-propylamino-4-amino-6-isopropyl-1,2,4-triazine-5-one]
Wheat [3]; 5 kg/hectare
  degree of damage, Wheat: 2-3

## CCCCNc1nnc(C2CCCCC2)c(=O)n1N [Compound 182, 3-n-butylamino-4-amino-6-cyclohexyl-1,2,4-triazine-5-one]
Wheat [3]; 40 Kg/hectare
  degree of damage, Wheat: 4-5
Echinochloa; 10 Kg/hectare
  degree of damage, Echinochloa: 4-5
Oats [1]; 40 Kg/hectare
  degree of damage, Oats: 4-5

## CSc1nnc(C(C)(C)C)c(=O)n1NC(O)C(Cl)(Cl)Cl (stereo not drawn) [Compound 192, 3-methylthio-4-(β-trichloro-α-hydroxy-ethyl)-amino-6-tert.-butyl-1,2,4-triazine-5-one]
Oats [4]; 2.4 Kg/hectare
  degree of damage, Oats: 4-5
Oats [1]; 1.25 kg/hectare
  degree of damage, Oats: 4-5
Oats [1]; 2.5 kg/hectare
  degree of damage, Oats: 4-5
Cotton; 1.25 kg/hectare
  degree of damage, Cotton: 4-5
Cotton; 2.5 kg/hectare
  degree of damage, Cotton: 4-5

## CSc1nnc(C(C)C)c(=O)n1N=CC1CCCCC1 [Compound 197, 3-methylthio-4-(hexahydrobenzylidene-amino)-6-isopropyl-1,2,4-triazine-5-one]
Wheat [3]; 1.25 kg/hectare
  degree of damage, Wheat: 4-5
Echinochloa; 1.2 Kg/hectare
  degree of damage, Echinochloa: 4-5
Wheat [2]; 1.2 Kg/hectare
  degree of damage, Wheat: 4-5

## CSc1nnc(C(C)C)c(=O)n1N=Cc1ccccc1 [Compound 198, 3-methylthio-4-(benzylidene-amino)-6-isopropyl-1,2,4-trizaine-5-one]
Wheat [3]; 1.25 kg/hectare
  degree of damage, Wheat: 4-5
Oats [4]; 0.6 Kg/hectare
  degree of damage, Oats: 3-4
Oats [4]; 2.4 Kg/hectare
  degree of damage, Oats: 4-5
Stellaria; 0.6 Kg/hectare
  degree of damage, Stellaria: 4-5

## CSc1nnc(C(C)C)c(=O)n1N=Cc1ccc(Cl)cc1 [Compound 201, 3-methylthio-4-(4'-chloro-benzylidene-amino)-6-isopropyl-1,2,4-triazine-5-one]
Wheat [3]; 1.25 kg/hectare
  degree of damage, Wheat: 4-5
Echinochloa; 1.2 Kg/hectare
  degree of damage, Echinochloa: 4-5
Stellaria; 1.2 Kg/hectare
  degree of damage, Stellaria: 4-5

## CSc1nnc(C(C)C)c(=O)n1N=Cc1ccco1 [Compound 203, 3-methylthio-4-(furfur-2'-ylidene-amino)-6-isopropyl-1,2,4-triazine-5-one]
Stellaria; 2.4 Kg/hectare
  degree of damage, Stellaria: 4-5
Wheat [2]; 1.2 Kg/hectare
  degree of damage, Wheat: 4-5
Cotton; 1.25 kg/hectare
  degree of damage, Cotton: 4-5

## CSc1nnc(C(C)C)c(=O)n1N=C1CCCCC1 [Compound 204, 3-methylthio-4-(cyclohexylidene-amino)-6-isopropyl-1,2,4-triazine-5-one]
Wheat [3]; 1.25 kg/hectare
  degree of damage, Wheat: 4-5
Stellaria; 0.6 Kg/hectare
  degree of damage, Stellaria: 4-5

## CSc1nnc(C(C)C)c(=O)n1N=Cc1ccccc1C [Compound 206, 3-methylthio-4-(2'-methyl-benzylidene-amino)-6-isopropyl-1,2,4-triazine-5-one]
Oats [4]; 2.4 Kg/hectare
  degree of damage, Oats: 4-5
Stellaria; 0.6 Kg/hectare
  degree of damage, Stellaria: 4-5
Wheat [2]; 1.2 Kg/hectare
  degree of damage, Wheat: 3-4
Cotton; 1.25 kg/hectare
  degree of damage, Cotton: 4-5

## CSc1nnc(C(C)C)c(=O)n1N=Cc1ccc([N+](=O)[O-])cc1 [Compound 210, 3-methylthio-4-(4'-nitro-benzylidene-amino)-6-isopropyl-1,2,4-triazine-5-one]
Oats [1]; 2.5 kg/hectare
  degree of damage, Oats: 4-5
Oats [1]; 5 kg/hectare
  degree of damage, Oats: 4-5
Cotton; 2.5 kg/hectare
  degree of damage, Cotton: 4-5
Cotton; 5 kg/hectare
  degree of damage, Cotton: 4-5

## CSc1nnc(C(C)(C)C)c(=O)n1N=CC(C)C [Compound 215, 3-methylthio-4-(isobutylidene-amino)-6-tert.-butyl-1,2,4-triazine-5-one]
Wheat [2]; 1.2 Kg/hectare
  degree of damage, Wheat: 4-5

## CCC=Nn1c(SC)nnc(C(C)C)c1=O [Compound 216, 3-methylthio-4-(n-propylidene-amino)-6-isopropyl-1,2,4-triazine-5-one]
Wheat [3]; 1.25 kg/hectare
  degree of damage, Wheat: 4-5

## CCCC=Nn1c(SC)nnc(C(C)C)c1=O [Compound 217, 3-methylthio-4-(n-butylidene-amino)-6-isopropyl-1,2,4-triazine-5-one]
Wheat [3]; 1.25 kg/hectare
  degree of damage, Wheat: 4-5

## CSc1nnc(C(C)(C)C)c(=O)n1N=C(C)C [Compound 220, 3-methylthio-4-(prop-2'-ylidene-amino)-6-tert.-butyl-1,2,4-triazine-5-one]
Wheat [3]; 1.25 kg/hectare
  degree of damage, Wheat: 4-5

## CSc1nnc(C2CCCCC2)c(=O)n1N=C(C)C [Compound 224, 3-methylthio-4-(prop-2'-ylidene-amino)-6-cyclohexyl-1,2,4-triazine-5-one]
Wheat [3]; 1.25 kg/hectare
  degree of damage, Wheat: 4-5
Oats [4]; 1.2 Kg/hectare
  degree of damage, Oats: 4-5
Wheat [2]; 1.2 Kg/hectare
  degree of damage, Wheat: 4-5
Wheat [2]; 2.4 Kg/hectare
  degree of damage, Wheat: 4-5

## CSc1nnc(C2CCCCC2)c(=O)n1N=CC1CCCCC1 [Compound 228, 3-methylthio-4-(hexahydrobenzylidene-amino)-6-cyclohexyl-1,2,4-triazine-5-one]
Wheat [3]; 5 kg/hectare
  degree of damage, Wheat: 4-5
Oats [4]; 1.2 Kg/hectare
  degree of damage, Oats: 4-5
Echinochloa; 0.6 Kg/hectare
  degree of damage, Echinochloa: 4-5
Oats [1]; 5 kg/hectare
  degree of damage, Oats: 4-5
Wheat [2]; 0.6 Kg/hectare
  degree of damage, Wheat: 4-5
Wheat [2]; 1.2 Kg/hectare
  degree of damage, Wheat: 4-5

## CNc1nnc(C(C)(C)C)c(=O)n1N=C(C)C [Compound 232, 3-methylamino-4-(prop-2'-ylidene-amino)-6-tert.-butyl-1,2,4-triazine-5-one]
Oats [1]; 1.25 kg/hectare
  degree of damage, Oats: 4-5
Wheat [2]; 1.2 Kg/hectare
  degree of damage, Wheat: 4-5

## CNn1c(OC)nnc(-c2ccccc2)c1=O [Compound 234, 3-methoxy-4-methylamino-6-phenyl-1,2,4-triazine-5-one]
Oats [1]; 5 kg/hectare
  degree of damage, Oats: 4-5
